According to patent US7919498B2, “Substituted pyrazolo[3,4-d]pyrimidines as PI3K inhibitors” (Amgen Inc., priority 2007, dated 2011):

Legend:
[1] = test system: mouse model of rheumatoid arthritis; settings: in vivo; cited from earlier work
[2] = test system: model of systemic lupus erythematosis; settings: in vivo; cited from earlier work
human B cells = assay: Human B cells proliferation stimulated by anti-IgM; format: cell-based; settings: B-cell; anti-Human IgM + CD40L-LZ, 72 h, 3H thymidine
Protocol: Human B Cells Proliferation Stimulate by Anti-IgM
Isolate PBMCs from Leukopac or from human fresh blood. Isolate human B cells by using Miltenyi protocol and B cell isolation kit II.—human B cells were Purified by using AutoMacs.column.
Activation of Human B Cells
Use 96 well Flat bottom plate, plate 50000/well purified B cells in B cell proliferation medium (DMEM+5% FCS, 10 mM Hepes, 50 μM 2-mercaptoethanol); 150 μL medium contain 250 ng/mL CD40L-LZ recombinant protein (Amgen) and 2 μg/mL anti-Human IgM antibody (Jackson ImmunoReseach Lab.# 109-006-129), mixed with 50 μL B cell medium containing PI3K inhibitors and incubate 72 h at 37° C. incubator. After 72 h, pulse labeling B cells with 0.5-1 uCi/well ^3H thymidine for overnight ˜18 h, and harvest cell using TOM harvester.

p110δ = target: T1, p110δ (Homo sapiens, UniProt O00329); settings: cited from earlier work
T1 sequence (O00329 1-1044): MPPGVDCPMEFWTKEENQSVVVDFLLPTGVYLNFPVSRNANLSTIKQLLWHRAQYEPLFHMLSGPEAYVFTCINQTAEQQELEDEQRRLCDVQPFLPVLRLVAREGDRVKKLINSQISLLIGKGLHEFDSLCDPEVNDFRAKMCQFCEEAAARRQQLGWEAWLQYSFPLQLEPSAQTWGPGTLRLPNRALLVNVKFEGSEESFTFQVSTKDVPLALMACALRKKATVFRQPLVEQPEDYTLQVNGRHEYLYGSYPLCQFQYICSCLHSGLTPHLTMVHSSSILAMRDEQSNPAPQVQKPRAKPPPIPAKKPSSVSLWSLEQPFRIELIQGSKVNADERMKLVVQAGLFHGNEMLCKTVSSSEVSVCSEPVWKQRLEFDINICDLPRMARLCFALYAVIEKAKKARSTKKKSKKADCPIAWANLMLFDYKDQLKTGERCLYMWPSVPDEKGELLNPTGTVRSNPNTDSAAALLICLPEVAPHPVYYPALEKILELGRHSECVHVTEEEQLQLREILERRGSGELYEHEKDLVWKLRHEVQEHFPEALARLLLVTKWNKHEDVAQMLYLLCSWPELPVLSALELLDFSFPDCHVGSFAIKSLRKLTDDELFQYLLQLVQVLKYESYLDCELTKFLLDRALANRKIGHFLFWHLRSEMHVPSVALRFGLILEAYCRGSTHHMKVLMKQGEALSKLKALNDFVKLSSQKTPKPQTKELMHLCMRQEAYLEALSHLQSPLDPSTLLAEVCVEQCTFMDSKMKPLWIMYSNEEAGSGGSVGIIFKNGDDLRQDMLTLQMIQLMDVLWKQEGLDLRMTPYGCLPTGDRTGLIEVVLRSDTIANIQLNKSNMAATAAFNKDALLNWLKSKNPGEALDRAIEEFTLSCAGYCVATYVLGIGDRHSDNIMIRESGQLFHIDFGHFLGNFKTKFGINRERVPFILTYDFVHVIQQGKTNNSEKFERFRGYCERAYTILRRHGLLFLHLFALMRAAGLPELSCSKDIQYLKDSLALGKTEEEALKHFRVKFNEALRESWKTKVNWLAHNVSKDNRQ

protein kinases = settings: cited from earlier work
murine model of asthma = settings: ovalbumin-induced airway inflammation; cited from earlier work

O=C1NC(=O)/C(=C\c2ccc3nccnc3c2)S1 [AS 605240]
efficacy in mouse model of rheumatoid arthritis [1]: efficacious
onset of disease in model of systemic lupus erythematosis [2]: delay onset of disease

Cn1cc(-c2nn(Cc3cc4c(Cl)cccc4nc3-c3ccccc3Cl)c3ncnc(N)c23)cn1 [Example 26, 1-((5-chloro-2-(2-chlorophenyl)quinolin-3-yl)methyl)-3-(1-methyl-1H-pyrazol-4-yl)-1H-pyrazolo[3,4-d]pyrimidin-4-amine]
IC50 (human B cells): 46.7 nM

Cc1nn(Cc2cc3cccc(Cl)c3nc2-c2ccccc2C(F)(F)F)c2ncnc(N)c12 [Example 30, 1-((8-chloro-2-(2-(trifluoromethyl)phenyl)quinolin-3-yl)methyl)-3-methyl-1H-pyrazolo[3,4-d]pyrimidin-4-amine]
IC50 (human B cells): 44.8 nM

Cc1nn(Cc2cc3c(Cl)cccc3nc2-c2ccccc2C(F)(F)F)c2ncnc(N)c12 [Example 31, 1-((5-Chloro-2-(2-(trifluoromethyl)phenyl)quinolin-3-yl)methyl)-3-methyl-1H-pyrazolo[3,4-d]pyrimidin-4-amine]
IC50 (human B cells): 136 nM

Cc1ccccc1-n1c(Cn2cnc3c(N)ncnc32)nc2cccc(C)c2c1=O [IC87114]
inhibition of p110δ (p110δ): high nanomolar range (triple digit)
activity against any protein kinases tested (protein kinases): no activity
inflammation and disease in murine model of asthma (murine model of asthma): significantly ameliorate inflammation and disease
